The text below walks through data of patent publication US20240368177A1, “5-AMINO-6,8-DIHYDRO-1H-FURO[3,4-d]PYRROLO[3,2-b]PYRIDINE-2-CARBOXAMIDE DERIVATIVES AS MTA-COOPERATIVE INHIBITORS OF PRMT5” (BeiGene Switzerland GmbH, priority 2023, published 2024).

Experiment [1] concerns HCT116-MTAP-KO. The experiment in a line: Cell killing in HCT116 isogenic pair (Cell Titer-Glo viability), MTAP knock-out cells. The note with it: Homo sapiens, HCT-116, 144 h, 6 days incubation, 0-10 μM, * = more than 50% viability inhibition at tested concentration without a full curve. In kind it is cell-based, human. In outline:
(§1)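 HCT116 MTAP-knockout or mock-knockout (MTAP wildtype) cells in RPMI 1640 with 10% FBS were seeded overnight, then exposed to test compound at 0–10 μM final for 6 days at 37° C. Viability was measured by CellTiter-Glo luminescence and IC50 was fitted.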

The test system of experiment [2] is HCT116-mock-RNA-KO. The experiment in a line: Cell killing in HCT116 isogenic pair (Cell Titer-Glo viability), mock knock-out cells with MTAP wildtype genotype. In kind it is cell-based, human. Particulars: Homo sapiens, HCT-116, 144 h, 6 days incubation, 0-10 μM. The method, boiled down:
as §1

Usually IC50 stands for the concentration that gives 50% inhibition.

For the compound `CN1CC[C@@H](N(C)C(=O)c2cc3nc(N)c4c(c3[nH]2)COC4)c2ccc(C(F)(F)F)cc21` [Example 181, (R)-5-amino-N-methyl-N-(1-methyl-7-(trifluoromethyl)-1,2,3,4-tetrahydroquinolin-4-yl)-6,8-dihydro-1H-furo[3,4-d]pyrrolo[3,2-b]pyridine-2-carboxamide], the values for the IC50 in experiment [1] and in experiment [2] were 15 nM and 1800 nM, respectively.
